SMILES strings stand for the structures.

The compound `*C(=O)c1ccc2c(c1)C(=O)N(c1ccc(Oc3ccc(C(=O)c4ccc5cc(C(=O)c6ccc(Oc7ccc(N8C(=O)c9ccc(*)cc9C8=O)cc7)cc6)ccc5c4)cc3)cc1)C2=O` (repeat unit) gave a glass transition temperature of 246.00 °C.

As for `*C(=O)c1ccc2c(c1OCc1ccccc1[N+](=O)[O-])C(=O)N(c1ccc(Oc3ccc(N4C(=O)c5ccc(*)c(OCc6ccccc6[N+](=O)[O-])c5C4=O)cc3)cc1)C2=O` (repeat unit), the glass transition temperature was found to be 198.00 °C.

`*Oc1ccc(-c2ccc(-c3ccc(Oc4ccc(C(C)(C)c5ccc(*)cc5)cc4)c(C(F)(F)F)c3)cc2)cc1C(F)(F)F` (repeat unit): the glass transition temperature turned out to be 192.00 °C.

On to `*Oc1ccc(/C=C/C(=O)c2ccc(Oc3ccc(C(C)(C)c4ccc(*)cc4)cc3)cc2)cc1` (repeat unit), for which the glass transition temperature was determined as 152.00 °C.

With `*Oc1ccc(/C=C/C(=O)c2ccc(Oc3ccc(C(C)(c4ccccc4)c4ccc(*)cc4)cc3)cc2)cc1` (repeat unit), the glass transition temperature came to 167.00 °C.

For `*Oc1ccc(/C=N/N=C/c2ccc(Oc3ccc(C(C)(C)c4ccc(*)cc4)cc3)cc2)cc1` (repeat unit), the glass transition temperature came to 163.00 °C.

With `*Oc1ccc(C(C)(C)c2ccc(C(C)(C)c3ccc(Oc4ccc(C(=O)Nc5ccc(NC(=O)c6ccc(*)cc6)cc5)cc4)cc3)cc2)cc1` (repeat unit), the glass transition temperature is 163.00 °C.

On to `*Oc1ccc(C(C)(C)c2ccc(Oc3ccc(C(=O)C(=O)c4ccc(*)cc4)cc3)cc2)cc1` (repeat unit), for which the glass transition temperature is 152.00 °C.

In turn, `*Oc1ccc(C(C)(C)c2ccc(Oc3ccc(C(=O)Nc4ccc(NC(=O)c5ccc(*)cc5)cc4)cc3)cc2)cc1` (repeat unit) yielded a glass transition temperature of 230.00 °C.

`*Oc1ccc(C(C)(C)c2cccc(C(C)(C)c3ccc(Oc4ccc(C(=O)Nc5ccc(Cc6ccc(NC(=O)c7ccc(*)cc7)cc6)cc5)cc4)cc3)c2)cc1` (repeat unit) came in with a glass transition temperature of 149.00 °C.

The compound `*Oc1ccc(C(C)(c2ccccc2)c2ccc(Oc3ccc(C(=O)C(=O)c4ccc(*)cc4)cc3)cc2)cc1` (repeat unit) gave a glass transition temperature of 177.00 °C.

Regarding `*Oc1ccc(C2(c3ccc(OC(=O)c4ccc(Oc5ccc(C6(c7ccc(Oc8ccc(C(*)=O)cc8)cc7)CCC(C(C)(C)C)CC6)cc5)cc4)cc3)CC3CC2C2CCCC32)cc1` (repeat unit), the glass transition temperature was found to be 181.00 °C.

`*Oc1ccc(C2(c3ccc(OC(=O)c4ccc(Oc5ccc(C6(c7ccc(Oc8ccc(C(*)=O)cc8)cc7)CCC(C(C)(C)C)CC6)cc5)cc4)cc3)CCCCCCCCCCC2)cc1` (repeat unit) displayed a glass transition temperature of 181.00 °C.

`*Oc1ccc(C2(c3ccc(Oc4ccc(/C=N/N=C/c5ccc(*)cc5)cc4)cc3)c3ccccc3-c3ccccc32)cc1` (repeat unit) returned a glass transition temperature of 227.00 °C.

With `*Oc1ccc(NC(=O)c2ccc(Oc3ccc(C(C)(C)c4ccc(C(C)(C)c5ccc(Oc6ccc(C(=O)Nc7ccc(Oc8ccc(C(c9ccc(*)cc9)(C(F)(F)F)C(F)(F)F)cc8)cc7)cc6)cc5)cc4)cc3)cc2)cc1` (repeat unit), the glass transition temperature came out at 169.00 °C.

The compound `*Oc1ccc(S(=O)(=O)c2ccc(-c3ccc(*)cc3)cc2)cc1` (repeat unit) gave a glass transition temperature of 269.00 °C.

`*Oc1ccc(S(=O)(=O)c2ccc(Oc3ccc(/C=N/c4ccc(Oc5ccc(/N=C/c6ccc(*)cc6)cc5)cc4)cc3)cc2)cc1` (repeat unit) showed a glass transition temperature of 162.00 °C.

`*Oc1ccc(S(=O)(=O)c2cccc3c(S(=O)(=O)c4ccc(Oc5ccc(-c6ccc(*)cc6)cc5)cc4)cccc23)cc1` (repeat unit) came in with a glass transition temperature of 248.00 °C.

Turning to `*Oc1cccc(NC(=O)c2ccc(Oc3ccc(C(C)(C)c4ccc(C(C)(C)c5ccc(Oc6ccc(C(=O)Nc7ccc(*)cc7)cc6)cc5)cc4)cc3)cc2)c1` (repeat unit), the glass transition temperature turned out to be 168.00 °C.

For `*c1ccc(-c2ccc(Oc3ccc(C4(C)CC(C)(C)c5ccc(Oc6ccc(-c7ccc(-n8c(=O)c9cc%10c(=O)n(*)c(=O)c%10cc9c8=O)cc7)cc6C(F)(F)F)cc54)cc3)c(C(F)(F)F)c2)cc1` (repeat unit), the glass transition temperature is 265.00 °C.

`*c1ccc(-c2nc3cc(C(=O)c4ccc5nc(-c6ccccc6)c(-c6ccc(N7C(=O)C8OC9C(=O)N(*)C(=O)C9C8C7=O)cc6)nc5c4)ccc3nc2-c2ccccc2)cc1` (repeat unit) came in with a glass transition temperature of 255.00 °C.

`*c1ccc(Oc2cc3ccccc3cc2Oc2ccc(-n3c(=O)c4cc5c(=O)n(*)c(=O)c5cc4c3=O)cc2)cc1` (repeat unit) yielded a glass transition temperature of 316.00 °C.

On to `*c1ccc(Oc2ccc(-c3cc(-c4ccccc4)c4cc(-c5ccc6nc(*)cc(-c7ccccc7)c6c5)ccc4n3)cc2)cc1` (repeat unit), for which the glass transition temperature worked out at 305.00 °C.

Regarding `*c1ccc(Oc2ccc(-c3cc(-c4ccccc4)c4cc(C5(c6ccc7nc(*)cc(-c8ccccc8)c7c6)c6ccccc6-c6ccccc65)ccc4n3)cc2)cc1` (repeat unit), the glass transition temperature was determined as 315.00 °C.

In turn, `*c1ccc(Oc2ccc(-c3cc(-c4ccccc4)c4cc5c(-c6ccccc6)cc(*)nc5cc4n3)cc2)cc1` (repeat unit) registered a glass transition temperature of 380.50 °C.

`*c1ccc(Oc2ccc(-c3cc(-c4ccccc4)c4cc5nc(*)cc(-c6ccccc6)c5cc4n3)cc2)cc1` (repeat unit) returned a glass transition temperature of 365.00 °C.

As for `*c1ccc(Oc2ccc(-c3ccc(-c4ccc(-c5ccc(Oc6ccc(-c7c8c(c(*)c9ccccc79)C(=O)N(c7ccccc7)C8=O)cc6)c(C(F)(F)F)c5)cc4)cc3)cc2C(F)(F)F)cc1` (repeat unit), the glass transition temperature came out at 334.00 °C.

As to `*c1ccc(Oc2ccc(-c3ccc(-c4ccc(Oc5ccc(-c6c7c(c(*)c8ccccc68)C(=O)N(c6ccccc6)C7=O)cc5)c(C(F)(F)F)c4)cc3)cc2C(F)(F)F)cc1` (repeat unit), the glass transition temperature was 317.00 °C.

Regarding `*c1ccc(Oc2ccc(-c3ccc(Oc4ccc(-c5cnc6cc(-c7ccc8nc(*)cnc8c7)ccc6n5)cc4)cc3)cc2)cc1` (repeat unit), the glass transition temperature came to 213.00 °C.

For `*c1ccc(Oc2ccc(-c3ccc(Oc4ccc(-c5nnc(*)c6c(-c7ccc(F)cc7)c(-c7ccc(F)cc7)c(-c7ccc(F)cc7)c(-c7ccc(F)cc7)c56)cc4)cc3)cc2)cc1` (repeat unit), the glass transition temperature stood at 320.00 °C.

`*c1ccc(Oc2ccc(-c3ccc(Oc4ccc(N5C(=O)CC(=O)N(*)C5=S)cc4)cc3)cc2)cc1` (repeat unit) registered a glass transition temperature of 158.50 °C.

The compound `*c1ccc(Oc2ccc(-c3cccc(-c4ccc(Oc5ccc(-c6c7c(c(*)c8ccccc68)C(=O)N(c6ccccc6)C7=O)cc5)c(C(F)(F)F)c4)c3)cc2C(F)(F)F)cc1` (repeat unit) returned a glass transition temperature of 271.00 °C.

Take `*c1ccc(Oc2ccc(-c3cnc4cc5nc(*)cnc5cc4n3)cc2)cc1` (repeat unit): the glass transition temperature was found to be 353.00 °C.

For the compound `*c1ccc(Oc2ccc(-c3cnc4cc5ncc(*)nc5cc4n3)cc2)cc1` (repeat unit), the glass transition temperature stood at 353.00 °C.

For `*c1ccc(Oc2ccc(-c3cnc4ccc(-c5ccc6ncc(*)nc6c5)cc4n3)cc2)cc1` (repeat unit), the glass transition temperature worked out at 305.00 °C.

`*c1ccc(Oc2ccc(-n3c(=O)c4c(Oc5ccc(OC)cc5)c5c(=O)n(*)c(=O)c5c(Oc5ccc(OC)cc5)c4c3=O)cc2)cc1` (repeat unit): the glass transition temperature is 303.50 °C.

Take `*c1ccc(Oc2ccc(-n3c(=O)c4c(Oc5ccc(OCCCC)cc5)c5c(=O)n(*)c(=O)c5c(Oc5ccc(OCCCC)cc5)c4c3=O)cc2)cc1` (repeat unit): the glass transition temperature turned out to be 269.50 °C.

Regarding `*c1ccc(Oc2ccc(-n3c(=O)c4cc5c(=O)n(-c6ncc(*)s6)c(=O)c5cc4c3=O)cc2)cc1` (repeat unit), the glass transition temperature is 328.80 °C.

With `*c1ccc(Oc2ccc(-n3nc(-c4ccccc4)cc3-c3cccc(-c4cc(-c5ccccc5)nn4*)c3)cc2)cc1` (repeat unit), the glass transition temperature was 232.00 °C.

`*c1ccc(Oc2ccc(C(C)(C)c3ccc(Oc4ccc(-c5ccc(*)s5)cc4C(F)(F)F)cc3)cc2)c(C(F)(F)F)c1` (repeat unit) registered a glass transition temperature of 130.00 °C.

Turning to `*c1ccc(Oc2ccc(C(C)(C)c3ccc(Oc4ccc(-c5cccc(*)n5)cc4C(F)(F)F)cc3)cc2)c(C(F)(F)F)c1` (repeat unit), the glass transition temperature was found to be 125.00 °C.

For `*c1ccc(Oc2ccc(C(C)(C)c3ccc(Oc4ccc(-c5nc(-c6ccccn6)nnc5*)cc4)cc3)cc2)cc1` (repeat unit), the glass transition temperature was found to be 220.00 °C.

In turn, `*c1ccc(Oc2ccc(C(C)(C)c3ccc(Oc4ccc(-c5ncc(*)o5)cc4C(F)(F)F)cc3)cc2)c(C(F)(F)F)c1` (repeat unit) gave a glass transition temperature of 185.00 °C.

In turn, `*c1ccc(Oc2ccc(C(C)(C)c3ccc(Oc4ccc(-c5nnc(*)c6c(-c7ccc(F)cc7)c(-c7ccc(F)cc7)c(-c7ccc(F)cc7)c(-c7ccc(F)cc7)c56)cc4)cc3)cc2)cc1` (repeat unit) gave a glass transition temperature of 282.00 °C.

The compound `*c1ccc(Oc2ccc(C(c3ccc(Oc4ccc(-c5nc(*)nc(-c6ccccc6)n5)cc4)cc3)(C(F)(F)F)C(F)(F)F)cc2)cc1` (repeat unit) displayed a glass transition temperature of 241.00 °C.

With `*c1ccc(Oc2ccc(P(=O)(c3ccccc3)c3ccc(Oc4ccc(-c5cc(*)[nH]n5)cc4)cc3)cc2)cc1` (repeat unit), the glass transition temperature turned out to be 296.00 °C.

`*c1ccc(Oc2ccc(P(=O)(c3ccccc3)c3ccc(Oc4ccc(-c5cc(*)n(-c6ccccc6)n5)cc4)cc3)cc2)cc1` (repeat unit) registered a glass transition temperature of 239.00 °C.

`*c1ccc(Oc2ccc(P(=O)(c3ccccc3)c3ccc(Oc4ccc(-c5nc(-c6ccccc6)[nH]c5*)cc4)cc3)cc2)cc1` (repeat unit) came in with a glass transition temperature of 318.00 °C.

In turn, `*c1ccc(Oc2ccc(S(=O)(=O)c3ccc(Oc4ccc(-c5nc6ccccc6n5-c5ccc(-n6c(*)nc7ccccc76)cc5)cc4)cc3)cc2)cc1` (repeat unit) displayed a glass transition temperature of 270.00 °C.

`*c1nnc(-c2ccc(Oc3ccc(C(c4ccc(Oc5ccc(*)c6ccccc56)cc4)(C(F)(F)F)C(F)(F)F)cc3)c3ccccc23)o1` (repeat unit) displayed a glass transition temperature of 220.00 °C.
